The source of these data is patent US5747461A, “Synergistic administration of cyclosporine and fructose diphosphate” (priority 1994, dated 1998).

In experiment [1] the test system is Concanavalin A-stimulated T-lymphocytes. In words: Thymidine incorporation by Concanavalin A-stimulated T-lymphocytes. Format: cell-based, rat. Conditions: ConA-stimulated. As for the experimental part: The in vitro tests, and their results, are described in detail in Example 1. Briefly, T lymphocytes were obtained from rat spleens. The cells were then stimulated by Concanavalin A (ConA), a mitogen that specifically stimulates T lymphocyte replication, both in control samples and in samples that were also contacted with either FDP or cyclosporine at various concentrations. Cell replication was measured by assaying the uptake of thymidine which had been radiolabelled using tritium, a heavy isotope of hydrogen. Cell viability was measured using a dye, trypan blue; intact and viable cells can exclude trypan blue from their interiors, while damaged or dead cells cannot.
Sprague-Dawley rats (150-200 gm body weight) were euthanized by overdose of ketamine (injected intramuscularly, IM). Their spleens were removed under sterile conditions and placed in a plastic petri dish with Buffered Hanks Solution (BHS). The splenic parenchyma was torn apart with sterile needles and forceps. The solution with the splenic fragments was homogenized with a Teflon pestle in a glass tube. This allowed the cells to be expressed into the solution which was then filtered and placed over Ficoll-Hypaque and centrifuged at 1500 RPM for 20 minutes in order to separate mononuclear cells. The middle layer of cells (containing lymphocytes) was removed and centrifuged at 1000 RPM for 10 min. After removing the supernates, the remaining red blood cells were lysed with 0.83% NH4 Cl solution, and the cells were again centrifuged at 1000 RPM for 2-3 min. The supernate was poured off and the cells were washed twice with BHS and then resuspended in tissue culture media (RPMI-1640 with 10% fetal calf serum). The cells then were adjusted to final concentration of 5×10^6 cells/ml with RPMI-1640 and 10% fetal calf serum.
A tissue culture multi-well plate was used for incubation. All well filling was done under sterile conditions. […] The well volume capacity was 0.35 ml.
Six different dilutions (freshly prepared in sterile water solution from 10% FDP stock solutions) were used--1:10, 1:100, 1:250, 1:500, 1:1000 and 1:10000. […] A few wells were used to measure the stimulation index, and received ConA or RPMI without FDP or Cyclosporine. All combinations were run in triplicate. The wells were labeled and incubated with CO2 at 35° C. for 48 hours.
Each well then received 0.05 ml of tritiated (^3 H) thymidine (1 μCi/0.05 ml). Radiolabelled thymidine is taken up by proliferating lymphocytes, allowing them to be counted using a liquid scintillation counter. After 16 to 20 hours of incubation the samples were harvested onto glass filter paper strips using a multiple automated sample harvester. The paper was allowed to dry 4-5 hours. Paper from each well was placed in scintillation counting vials with 5 ml fluorane (scintillene). […] Significance was assessed by unpaired t-test.
A general note: Incorporation of labelled thymidine or its analogues reports DNA synthesis.

Experiment [2] deals with ex vivo stored hearts. The experiment in a line: Ex vivo cold ischemic storage and reperfusion of hearts (Langendorf apparatus). Also noted: species or system rat. The protocol: Hearts were harvested from ketamine-anesthetized Sprague Dawley rats (350-450 gm body weight). Prior to harvesting the hearts, 17 randomly chosen rats received an intravenous bolus injection of FDP 450 mg/kg (10%). The hearts were removed, the left atria and aorta were attached to a modified Langendorf apparatus within 3 min, and the hearts were perfused ex vivo for 15 min at 37° C. with Krebs-Henseleit solution to which 0.07 mg/ml of FDP had been added. Rats in the control group (n=21) received an equivalent volume saline injection prior to surgery, and the hearts were perfused for 15 min with Krebs-Henseleit solution containing no FDP. Heart rates, systolic and diastolic pressures, cardiac outputs, and coronary blood flow during this period were measured and recorded.
After the 15 minute perfusion period, the control hearts (n=21) were flushed with cardioplegic solution (Isolyte, K^+ 20 mEq/L). The FDP=treated hearts (n=17) were flushed with the same solution containing 1 mg/cc of FDP. The hearts were respectively placed in cold (4° C.) saline solution, with 0.9% NaCl or 0.9% NaCl containing 1 mg/ml FDP, and stored at 4° C. for 4 hours. After the 4 hour storage period was completed, the hearts were reperfused and warmed to 37° C. again. Seven hearts from each group were taken out of the Langendorf apparatus after 15 minutes and analyzed for myocardial ATP content. The remaining hearts (10 in the treatment group, and 14 in the control group) were measured in various ways (heartbeat rates, mean aortic and systolic pressures, and cardiac output) for 2 hours following the commencement of reperfusion.

The subject of experiment [3] is ischemically stored hearts. The experiment in a line: Oxygen consumption after hypothermic ischemic storage, heart. The following applies: hearts n=4; FDP 1 mg/ml in storage solution; 16 to 20 hours storage. Also noted: species or system rat. As for the experimental part:
Sprague Dawley rats (150-180 gm/body weight) were anesthetized with Ketamine 35 mg/kg. The liver, kidney and heart were excised and placed in 50 ml of a standard cardioplegia solution sold under the trademark ISOLYTE (which contained Na^+ -41 mEq/L, K^+ -16 mEq/L, Ca^++ -5 mEq/L, Mg^++ 3 mEq/L, Cl^- -40 mEq/L, acetate 24 mEq/L with 5% Dextrose), precooled to 4° C. To half of the storage containers, 1 mg/ml of 10% FDP was added; to the rest of the containers, a similar amount of glucose was added. The containers were placed on ice in a refrigerator. After storage for 16 to 20 hours, the organs were weighed and placed in a metabolic chamber for determination of oxygen consumption,using a Clark polarographic electrode. The total volume of the chamber was 10 ml and the composition of the medium was 8 ml phosphate buffered saline (PBS Dulbecco, Mg^++ and Ca^++ free) and 2 cc of Dextrose at a temperature of 36°±0.2° C. The organ was placed in the chamber and 100% oxygen was bubbled for 45 sec. The partial pressure of the dissolved oxygen was usually 480-560 mm Hg. Then the chamber was sealed hermetically, and O2 consumption by the organ was recorded on a strip chart recorder at a speed of 1 cm/min. Initial and final PO2 levels of medium in the chamber were measured on a Radiometer Blood Gas Analyzer Model ABL-4.

With `O=C(COP(=O)(O)O)[C@@H](O)[C@H](O)[C@H](O)COP(=O)(O)O` [FDP, fructose-1,6-diphosphate], the Thymidine incorporation in experiment [1] (FDP 1:10 dilution of 10% stock) is 136 counts per 2 minute period; in experiment [1] (FDP 1:100 dilution of 10% stock), 1175 counts per 2 minute period; in experiment [1] (FDP 1:250 dilution of 10% stock) it was 24818 counts per 2 minute period; in experiment [1] (FDP 1:500 dilution of 10% stock), 52481 counts per 2 minute period; in experiment [1] (FDP 1:1000 dilution of 10% stock), 62518 counts per 2 minute period; in experiment [1] (FDP 1:10000 dilution of 10% stock, mean of 13 experiments) it was 89032 counts per 2 minute period. Also, the “myocardial ATP content vs control group” value in experiment [2] (after 15 min of reperfusion, FIG. 5, p<0.01) was “higher”. For the same compound, the “hearts still showing a heartbeat” value in experiment [2] (after 1 hour and 30 min of reperfusion following 4 h storage at 4° C., n=10, controls 5 of 14) is “all”. In addition, the “post-storage heartbeat rate vs control group” value in experiment [2] (after 4 h cold storage, FIG. 1) is “significantly higher”. Also, the “peak systolic aortic pressures vs control group” value in experiment [2] (after 4 h cold storage, FIG. 2) is “significantly higher”. Moreover, in experiment [2] (after 4 h cold storage, FIG. 3), the “mean pressures vs control group” value was “significantly higher”. Also, the “cardiac output rates vs control group” value in experiment [2] (after 4 h cold storage, FIG. 4) is reported as “significantly higher”. Further, the “post-storage O2 consumption” value in experiment [3] was 68.4±3.14 mmHg O2 /min/gm.
